{"source": "ChEMBL document CHEMBL5500372", "about": "“Novel natural osthole-inspired amphiphiles as membrane targeting antibacterials against methicillin-resistant Staphylococcus aureus (MRSA)” (Eur J Med Chem, 2024)", "key": {"Staphylococcus aureus [1]": {"system": "Staphylococcus aureus", "assay": "Antibacterial activity against methicillin-resistant Staphylococcus aureus clinical isolate 16 infected in female KM mouse skin abscess model assessed as reduction in infiltration of inflammatory cells in dermis at 10 mg/kg, sc measured after 24 hrs by H and E staining based analysis", "assay_type": "functional, organism-based"}, "[2]": {"assay": "Toxicity in female KM mouse assessed as adverse reaction in skin at 20 mg/kg, sc measured after 24 hrs", "assay_type": "organism-based", "conditions": "in vivo"}, "[3]": {"assay": "Toxicity in female KM mouse assessed as effect on CREA at upto 20 mg/kg, sc measured after 24 hrs by biochemical test", "assay_type": "organism-based", "conditions": "in vivo"}, "Cell membrane [4]": {"system": "Cell membrane", "assay": "Disruption of cell membrane in methicillin-resistant Staphylococcus aureus clinical isolate 16 assessed as increase in blue fluorescence at 8 times MIC measured after 4 hrs by DAPI and PI staining based laser confocal microscopy based analysis", "assay_type": "cell membranes"}, "[5]": {"assay": "Toxicity in female KM mouse skin abscess model infected with methicillin-resistant Staphylococcus aureus clinical isolate 16 assessed as effect on lung at 5 to 10 mg/kg, sc measured after 24 hrs by H and E staining based analysis", "assay_type": "organism-based", "conditions": "in vivo, dose 5-10 mg/kg"}, "Cell membrane [6]": {"system": "Cell membrane", "assay": "Induction of cell membrane disruption in methicillin-resistant Staphylococcus aureus clinical isolate 16 assessed as dead cells (Q1 region) at 8 ug/ml measured after 2 hrs by SYTO-9 and PI staining based flow cytometry analysis (reference value: 0%)", "assay_type": "cell membranes", "conditions": "dose 8.0 µg/ml"}, "[7]": {"assay": "Toxicity in female KM mouse assessed as survival at 80 mg/kg, sc measured after 24 hrs", "assay_type": "organism-based", "conditions": "in vivo"}, "Staphylococcus aureus [8]": {"system": "Staphylococcus aureus", "assay": "Antibacterial activity against methicillin-resistant Staphylococcus aureus clinical isolate 16 infected in female KM mouse skin abscess model assessed as smooth skin on back at 10 mg/kg, sc measured after 24 hrs", "assay_type": "functional, organism-based"}, "Staphylococcus aureus [9]": {"system": "Staphylococcus aureus", "assay": "Bactericidal activity against Staphylococcus aureus ATCC 29213 assessed as eradication of bacteria at 8 times MIC measured after 4 hrs by time-kill assay relative to control", "assay_type": "functional"}, "[10]": {"assay": "Toxicity in female KM mouse assessed as effect on kidney at 20 mg/kg, sc measured after 24 hrs by H and E staining based analysis", "assay_type": "organism-based", "conditions": "in vivo"}, "Staphylococcus aureus [11]": {"system": "Staphylococcus aureus", "assay": "Antibacterial activity against methicillin-resistant Staphylococcus aureus clinical isolate 16 infected in female KM mouse skin abscess model assessed as effect on skin abscess at 10 mg/kg, sc measured after 24 hrs", "assay_type": "functional, organism-based"}, "[12]": {"assay": "Toxicity in female KM mouse assessed as effect on liver at 20 mg/kg, sc measured after 24 hrs by H and E staining based analysis", "assay_type": "organism-based", "conditions": "in vivo"}, "[13]": {"assay": "Toxicity in female KM mouse assessed as effect on heart at 20 mg/kg, sc measured after 24 hrs by H and E staining based analysis", "assay_type": "organism-based", "conditions": "in vivo"}, "[14]": {"assay": "Toxicity in female KM mouse assessed as effect on red blood cell at upto 20 mg/kg, sc measured after 24 hrs", "assay_type": "organism-based", "conditions": "in vivo"}, "Cell membrane [15]": {"system": "Cell membrane", "assay": "Disruption of cell membrane in methicillin-resistant Staphylococcus aureus clinical isolate 16 assessed as fold increase in intracellular ROS level at 64 ug/ml incubated for 50 mins by DCFH-DA staining based fluorescence assay", "assay_type": "cell membranes", "conditions": "dose 64.0 µg/ml"}, "Cell membrane [16]": {"system": "Cell membrane", "assay": "Induction of cell membrane disruption in methicillin-resistant Staphylococcus aureus clinical isolate 16 assessed as dead cells (Q1 region) at 4 ug/ml measured after 2 hrs by SYTO-9 and PI staining based flow cytometry analysis (reference value: 0%)", "assay_type": "cell membranes", "conditions": "dose 4.0 µg/ml"}, "[17]": {"assay": "Toxicity in female KM mouse assessed as effect on platelet count at upto 20 mg/kg, sc measured after 24 hrs", "assay_type": "organism-based", "conditions": "in vivo"}, "[18]": {"assay": "Toxicity in female KM mouse skin abscess model infected with methicillin-resistant Staphylococcus aureus clinical isolate 16 assessed as histological abnormalities in kidney at 5 to 10 mg/kg, sc measured after 24 hrs by H and E staining based analysis", "assay_type": "organism-based", "conditions": "in vivo, dose 5-10 mg/kg"}, "[19]": {"assay": "Toxicity in female KM mouse assessed as adverse effect on back skin at 5 to 20 mg/kg, sc measured after 24 hrs", "assay_type": "organism-based", "conditions": "in vivo, dose 5-20 mg/kg"}, "Staphylococcus aureus [20]": {"system": "Staphylococcus aureus", "assay": "Antibacterial activity against Staphylococcus aureus ATCC 29213 measured after 18 hrs by CLSI based broth microdilution method", "assay_type": "functional"}, "[21]": {"assay": "Stability in 50% sheep blood plasma measured after 6 hrs", "assay_type": "ADME, cell-free, Ovis aries"}, "Cell membrane [22]": {"system": "Cell membrane", "assay": "Induction of cell membrane disruption in methicillin-resistant Staphylococcus aureus clinical isolate 16 assessed as intact cells (Q3 region) at 16 ug/ml measured after 2 hrs by SYTO-9 and PI staining based flow cytometry analysis (reference value: 96.0%)", "assay_type": "cell membranes", "conditions": "dose 16.0 µg/ml"}, "Staphylococcus aureus [23]": {"system": "Staphylococcus aureus", "assay": "Antibacterial activity against methicillin-resistant Staphylococcus aureus clinical isolate 23 measured after 18 hrs by CLSI based broth microdilution method", "assay_type": "functional"}, "Cell membrane [24]": {"system": "Cell membrane", "assay": "Disruption of cell membrane in methicillin-resistant Staphylococcus aureus clinical isolate 16 assessed as increase in red fluorescence at 8 times MIC measured after 4 hrs by DAPI and PI staining based laser confocal microscopy based analysis", "assay_type": "cell membranes"}, "[25]": {"assay": "Toxicity in female KM mouse assessed as effect on hemoglobin at upto 20 mg/kg, sc measured after 24 hrs", "assay_type": "organism-based", "conditions": "in vivo"}, "Staphylococcus aureus [26]": {"system": "Staphylococcus aureus", "assay": "Antibacterial activity against methicillin-resistant Staphylococcus aureus clinical isolate 16 infected in female KM mouse skin abscess model assessed as reduction in bacterial load at 10 mg/kg, sc measured after 24 hrs relative to control", "assay_type": "functional", "set-up": "scale not given: the % may be the effect or the level left"}, "Cell membrane [27]": {"system": "Cell membrane", "assay": "Disruption of cell membrane in methicillin-resistant Staphylococcus aureus clinical isolate 16 assessed as appearance of uneven surface at 16 ug/ml measured after 4 hrs by SEM analysis", "assay_type": "cell membranes", "conditions": "dose 16.0 µg/ml"}, "[28]": {"assay": "Toxicity in female KM mouse skin abscess model infected with methicillin-resistant Staphylococcus aureus clinical isolate 16 assessed as effect on heart at 5 to 10 mg/kg, sc measured after 24 hrs by H and E staining based analysis", "assay_type": "organism-based", "conditions": "in vivo, dose 5-10 mg/kg"}, "[29]": {"assay": "Toxicity in female KM mouse assessed as effect on hematocrit in blood at upto 20 mg/kg, sc measured after 24 hrs", "assay_type": "organism-based", "conditions": "in vivo"}, "Staphylococcus aureus [30]": {"system": "Staphylococcus aureus", "assay": "Antibacterial activity against methicillin-resistant Staphylococcus aureus clinical isolate 16 measured after 18 hrs in presence of cardiolipin by checkerboard broth dilution method", "assay_type": "functional, organism-based"}, "Staphylococcus aureus [31]": {"system": "Staphylococcus aureus", "assay": "Antibacterial activity against methicillin-resistant Staphylococcus aureus clinical isolate 16 infected in female KM mouse skin abscess model assessed as reduction in infiltration of inflammatory cells in subcutaneous tissue at 10 mg/kg, sc measured after 24 hrs by H and E staining based analysis", "assay_type": "functional, organism-based"}, "Cell membrane [32]": {"system": "Cell membrane", "assay": "Induction of cell membrane disruption in methicillin-resistant Staphylococcus aureus clinical isolate 16 assessed as intact cells (Q3 region) at 64 ug/ml measured after 2 hrs by SYTO-9 and PI staining based flow cytometry analysis (reference value: 96.0%)", "assay_type": "cell membranes", "conditions": "dose 64.0 µg/ml"}, "Staphylococcus aureus [33]": {"system": "Staphylococcus aureus", "assay": "Antibacterial activity against methicillin-resistant Staphylococcus aureus clinical isolate 21 measured after 18 hrs by CLSI based broth microdilution method", "assay_type": "functional"}, "[34]": {"assay": "Toxicity in female KM mouse skin abscess model infected with methicillin-resistant Staphylococcus aureus clinical isolate 16 assessed as effect on spleen at 5 to 10 mg/kg, sc measured after 24 hrs by H and E staining based analysis", "assay_type": "organism-based", "conditions": "in vivo, dose 5-10 mg/kg"}, "Cell membrane [35]": {"system": "Cell membrane", "assay": "Induction of cell membrane disruption in methicillin-resistant Staphylococcus aureus clinical isolate 16 assessed as dead cells (Q1 region) at 16 ug/ml measured after 2 hrs by SYTO-9 and PI staining based flow cytometry analysis (reference value: 0%)", "assay_type": "cell membranes", "conditions": "dose 16.0 µg/ml"}, "Staphylococcus aureus [36]": {"system": "Staphylococcus aureus", "assay": "Antibacterial activity against methicillin-resistant Staphylococcus aureus clinical isolate 14 measured after 18 hrs by CLSI based broth microdilution method", "assay_type": "functional"}}, "note": "Activity calls are given as the source filed them. The calls are words filed in the database; no cut-off is given here."}
{"smiles": "CCCCCCNC(=O)C[N+](C)(C)CCCCCOc1ccc2ccc(=O)oc2c1CC=C(C)C.[Br-]", "values": [{"measurement": "Activity", "setting": "Staphylococcus aureus [1]", "value": "Active"}, {"measurement": "Activity", "setting": "[2]", "value": "Non-Toxic"}, {"measurement": "Activity", "setting": "[3]", "value": "Non-Toxic"}, {"measurement": "Activity", "setting": "Cell membrane [4]", "value": "Active"}, {"measurement": "Activity", "setting": "[5]", "value": "Non-Toxic"}, {"measurement": "Activity", "setting": "Cell membrane [6]", "value": 0.34, "unit": "%"}, {"measurement": "Activity", "setting": "[7]", "value": "Non-Toxic"}, {"measurement": "Activity", "setting": "Staphylococcus aureus [8]", "value": "Active"}, {"measurement": "Activity", "setting": "Staphylococcus aureus [9]", "value": 100, "unit": "%"}, {"measurement": "Activity", "setting": "[10]", "value": "Non-Toxic"}, {"measurement": "Activity", "setting": "Staphylococcus aureus [11]", "value": "inactive"}, {"measurement": "Activity", "setting": "[12]", "value": "Non-Toxic"}, {"measurement": "Activity", "setting": "[13]", "value": "Non-Toxic"}, {"measurement": "Activity", "setting": "[14]", "value": "Non-Toxic"}, {"measurement": "fold change (FC)", "setting": "Cell membrane [15]", "value": 7}, {"measurement": "Activity", "setting": "Cell membrane [16]", "value": 0.12, "unit": "%"}, {"measurement": "Activity", "setting": "[17]", "value": "Non-Toxic"}, {"measurement": "Activity", "setting": "[18]", "value": "Non-Toxic"}, {"measurement": "Activity", "setting": "[19]", "value": "Non-Toxic"}, {"measurement": "MIC", "setting": "Staphylococcus aureus [20]", "value": 1, "unit": "µg/mL"}, {"measurement": "Stability", "setting": "[21]", "value": "Stable"}, {"measurement": "Activity", "setting": "Cell membrane [22]", "value": 1.1, "unit": "%"}, {"measurement": "MIC", "setting": "Staphylococcus aureus [23]", "value": 2, "unit": "µg/mL"}, {"measurement": "Activity", "setting": "Cell membrane [24]", "value": "Active"}, {"measurement": "Activity", "setting": "[25]", "value": "Non-Toxic"}, {"measurement": "Activity", "setting": "Staphylococcus aureus [26]", "value": 99.998, "unit": "%"}, {"measurement": "Activity", "setting": "Cell membrane [27]", "value": "Active"}, {"measurement": "Activity", "setting": "[28]", "value": "Non-Toxic"}, {"measurement": "Activity", "setting": "[29]", "value": "Non-Toxic"}, {"measurement": "Activity", "setting": "Staphylococcus aureus [30]", "value": "Active"}, {"measurement": "Activity", "setting": "Staphylococcus aureus [31]", "value": "Active"}, {"measurement": "Activity", "setting": "Cell membrane [32]", "value": 0, "unit": "%"}, {"measurement": "MIC", "setting": "Staphylococcus aureus [33]", "value": 2, "unit": "µg/mL"}, {"measurement": "Activity", "setting": "[34]", "value": "Non-Toxic"}, {"measurement": "Activity", "setting": "Cell membrane [35]", "value": 0.68, "unit": "%"}, {"measurement": "MIC", "setting": "Staphylococcus aureus [36]", "value": 1, "unit": "µg/mL"}]}
